Test results reported in patent US20090133166A1, “Methods for Improving Flowering Characteristics Using Methyl Dihydrojasmonate” (NEW BIOLOGY, INC., priority 2007, published 2009).
Several values for one entry are separate records, joined by “and”; a condition that tells them apart may be missing. Equal values may be shown once.

What was measured:
[1] = test system: field grown ‘Julia Child’ roses; assay: Vase life / bloom stage of cut field grown roses after pre-harvest foliar treatment; type: in vivo; set-up: key to Bloom Stage Day 1 / Bloom Stage Day 3: a: Green Bud; b: Full Bud; c: Flower in early bloom stage; d: Flower in fully open stage; Flower in late bloom stage; Fully wilted flower; Flower drooped before fully opening
Procedure: Foliage of field grown ‘Julia Child’ roses were sprayed to the point of drip 24 hours before harvesting with an aqueous solution comprising 5.0 mM MDHJ, 0.125% Triton® X-100, and 0.5% canola oil. On average, about 100 ml of the formulation was applied per plant, comprising an approximate volume of 130 μl (or 500 μM) MDHJ. Stems of flowers in the bud to early-bloom stage were cut in the field. Stems received a fresh cut while submerged under water before transferring to a water-filled vase. The bloom stage of 4-5 flowers was analyzed on day 1 and day 3, as compared with untreated roses that were otherwise similarly handled. FIG. 1 illustrates the full vases of flowers for the treated and untreated roses on day 1 and day 3, respectively. FIG. 2 illustrates individual roses on day 1 and day 3.

Parade Roses® = assay: Flower development on intact flowering rose plants after foliar treatment; type: in vivo; set-up: key to Bloom Stage Day 1 / Bloom Stage Day 12: 1: Early bloom; 2: Fully Open; 3: Wilted
Procedure: Parade Roses® with flowers in the bud to early bloom stage were treated to the point of drip on day 1 and day 2 with an aqueous solution comprising either (1) 0.125% Triton® X-100 and 0.5% canola oil as a control treatment; or (2) 1.5 mM MDHJ, 0.125% Triton® X-100, and 0.5% canola oil. There were four plants per treatment. Approximately 10 ml of each treatment was applied to each plant, comprising approximately 3.9 μL (15 μM MDHJ). Rate of flower development of individual flowers was monitored and compared between treatments. On day 1 and day 12, individual flowers were rated according to their stage of blooming. FIG. 3 is a photographic comparison of treated and untreated plants at day 1 and day 12.

[2] = plants treated before harvesting, vs untreated

Structure (SMILES): CCCCCC1C(=O)CCC1CC(=O)OC (stereo not shown) [MDHJ, methyl dihydrojasmonate]
- Bloom Stage Day 1 ([1]; individual cut flowers, day 1, foliage sprayed 24 hours before harvesting with 5.0 mM MDHJ, 0.125% Triton X-100, 0.5% canola oil, listed as Treated): d and c and b (2×)
- Bloom Stage Day 3 ([1]; individual cut flowers, day 3, foliage sprayed 24 hours before harvesting with 5.0 mM MDHJ, 0.125% Triton X-100, 0.5% canola oil): d
- Ability of buds to open fully into flowers ([1]; plants treated before harvesting buds and early flowers, vs untreated): improving the ability of the buds to open fully into flowers
- Bent neck of stems [1, 2]: prevents stems from exhibiting bent neck
- Flower wilting [1, 2]: delays flower wilting
- Average Bloom Stage Day 1 (Parade Roses®; average of 8 flowers, day 1, scale 1 early bloom, 2 fully open, 3 wilted, 1.5 mM MDHJ formulation): 1.4
- Average Bloom Stage Day 12 (Parade Roses®; average of 8 flowers, day 12, scale 1 early bloom, 2 fully open, 3 wilted, 1.5 mM MDHJ formulation): 1.4
- Flower development on intact plants (Parade Roses®; formulation containing MDHJ vs control formulation without MDHJ): prolonged flower development
- Bloom Stage Day 1 (Parade Roses®; individual flowers on intact plants, day 1, 1.5 mM MDHJ, 0.125% Triton X-100, 0.5% canola oil applied day 1 and day 2, listed as Treatment 2): 2 (3×) and 1 (5×)
- Bloom Stage Day 12 (Parade Roses®; individual flowers on intact plants, day 12, 1.5 mM MDHJ, 0.125% Triton X-100, 0.5% canola oil applied day 1 and day 2, listed as Treatment 2): 2 (3×) and 1 (5×)
